Experimental findings from article PMC10044445, “Tuning the Anthranilamide Peptidomimetic Design to Selectively Target Planktonic Bacteria and Biofilm” (Antibiotics, 2023) are described below.

One assay concerns S. aureus. Briefly: Minimum inhibitory concentration, broth microdilution (CLSI). Type of assay: cell-based, Staphylococcus aureus. To be noted: for MIC90: broth microdilution in MHB, 18–24 h; for MIC: Table 2, lysine derivative versus parent, read-out: MIC S. aureus. On the procedure:
(§1) The antimicrobial activity of the compounds was evaluated by a broth microdilution assay using the procedure described by CLSI. Briefly, bacteria were grown to mid-log phase in Muller Hinton broth (MHB) with shaking at 120 rpm and incubated at 37 °C for 12–16 h. Following incubation, bacteria were washed three times in PBS pH 7.4 at 3500 g for 10 min. After washing, bacteria were diluted with fresh MHB. The turbidity of the bacterial suspensions was adjusted so that OD660nm was 0.1, which gave 1 × 10^8 CFU/mL, and then further diluted to achieve 5 × 10^5 CFU/mL as a final bacterial concentration. Each compound was diluted (250–3.9 µM) through two-fold dilution. Wells in microtiter plates were loaded with 100 µL of inoculum containing 5 × 10^5 CFU/mL bacteria. Wells without any compound and containing only bacteria were used as negative controls (i.e., no inhibition of growth). Wells with media only were set as blank. The microtiter plate was wrapped with paraffin to prevent evaporation and incubated with shaking at 120 rpm and 37 °C for 18–24 h. After incubation, spectrophotometric readings were taken. The well without any bacterial growth and showing zero spectrophotometric reading was regarded as the MIC of the compounds.
For orientation: Dilution methods test growth across graded concentrations, often in twofold steps.

In a further assay the test system is E. coli K12. Briefly: Cytoplasmic membrane permeability (depolarization) assay with DiSC3(5). Type of assay: cell-based. To be noted: 2× MIC. On the procedure: (§2) Compounds 13d (series I), 16b (series II), 19a (series III) and 19b (series III) were selected as representative examples of each series with strong antibacterial activities (particularly against S. aureus). As AMPs are known to be membrane-targeting, membrane permeability assays are frequently used to confirm the mode of action of peptidomimetics. In this assay, S. aureus and E. coli were treated with the active compounds in the presence of the membrane potential-sensitive cyanine dye 3,3′-dipropylthiadicarbocyanine iodide (DiSC3(5)). Perturbation of the membrane by the compounds leads to loss of the membrane potential gradient (depolarization), causing the dye to be released into the medium and resulting in an increase in fluorescence intensity.
(§3) The method was adopted from Wu et al. with slight modifications. Bacterial cytoplasmic membrane permeability was determined using membrane potential sensitive dye diSC3-5 (3,3′-dipropylthiadicarbocyanine iodide) which penetrates inside bacterial cells depending on the membrane potential gradient of the cytoplasmic membrane. Bacteria were grown in MHB to mid-log phase by incubating with shaking at 37 °C for 18–24 h. Following incubation, bacteria were washed with 5 mM HEPES containing 20 mM glucose pH 7.2 and resuspended in the same buffer to an OD600 0.05–0.06 which gave 1 × 10^7 CFU/mL. The dye diSC3-5 was added at 4 µM to the bacterial suspension. The suspensions were incubated at room temperature for 1 h in the dark for maximum dye take-up by the bacterial cells. Then, 100 mM KCl was added to balance the K+ outside and inside the bacterial cell to prevent further uptake or outflow of the dye. For Gram-negative bacteria, 0.5 mM EDTA was used to destabilize the lipopolysaccharides-Mg^2+-Ca^2+ complex to help in dye penetration without affecting bacterial growth. A total of 100 µL of bacterial suspension was added to 96-well microtiter plate and with equal volume of antimicrobial compounds. DMSO (20%) was set as a positive control while dye and only bacterial cells were set as a negative control. Fluorescence was measured with a luminescence spectrophotometer at 3 min intervals at an excitation wavelength of 622 nm and an emission wavelength of 670 nm.
(§4) Figure 2 Cytoplasmic membrane depolarization of S. aureus 38 and E. coli K12 by 13d, 16b, 19a, 19b, as assessed by release of the membrane potential-sensitive dye DiSC3(5) measured spectroscopically at λex = 622 nm and λem = 670 nm at 2× MIC concentration. Data are presented as means (±SD) of three independent repeats. 20% DMSO was used as a positive control.

In the next assay the test system is S. aureus 38. Described as above. Type of assay: cell-based. To be noted: 2× MIC. The method, then: as §2, §3, §4
A further assay has as its system S. aureus biofilms. In words: Disruption of established biofilm, crystal violet staining. Type of assay: cell-based. The note with it: 24 h treatment. The method, then: (§5) Bacteria in biofilms are 10–1000 times more resistant to conventional antibiotics than planktonic bacteria. Moreover, biofilms are insensitive to antiseptics and many host immune responses. Since up to 80% of all microbial infections are biofilm-related, an effective antibacterial agent should also be able to disrupt established biofilms to tackle bacterial infections.
(§6) Bacterial cultures (S. aureus and E. coli) were grown in MHB media overnight at 37 °C with shaking at 120 rpm. Cultures were diluted (1:20) in an MHB medium and 200 μL aliquots were dispensed to flat bottom 96-well plate wells (Sarstedt, Mawson Lakes, Australia). Cultures were supplemented with varying concentrations of synthetic compounds dissolved in DMSO. Biofilm was grown in a 96-well plate for 24 h followed by the addition of synthetic compounds and incubated further for 24 h. Plates were sealed with self-adhesive microplate sealers (TopSeal-A, PerkinElmer) to allow air diffusion and to prevent condensation. Biofilms adhered on polystyrene substratum were quantified by crystal violet staining as described previously. The experiment was performed in triplicate.
Figure 4 Disruption of established biofilms of S. aureus after 24 h treatment with 1× to 8× MIC concentrations of compounds 13d, 16b, 19a, 19b. The positive control represents the pre-established biofilms without any compounds. Error bars indicate the standard error of the mean (SEM) of three independent experiments.

The test system of another assay is E. coli. In words: Minimum inhibitory concentration, broth microdilution (CLSI). It is filed as cell-based, Escherichia coli. To be noted: for MIC90: broth microdilution in MHB, 18–24 h; for MIC: Table 2, lysine derivative versus parent, read-out: MIC E. coli. The method, then:
as §1

The subject of another assay is E. coli biofilms. Briefly: Disruption of established biofilm, crystal violet staining. Type of assay: cell-based. The note with it: 24 h treatment; for disruption of established E. coli biofilm (in words): 1× to 8× MIC; for disruption of E. coli biofilm mass: 2× MIC (62.4 µM). The method, then: as §5, §6
Figure 5 Disruption of established biofilm of E. coli after 24 h treatment with 1× to 8× MIC concentrations of compounds 13d, 16b, 19a, and 19b. The negative control represents pre-established biofilms without any compounds. Error bars indicate the standard error of the mean (SEM) of three independent experiments.

The subject of assay [1] is Bacillus subtilis strain BS23. Briefly: Membrane integrity study, epifluorescence microscopy (atpA-GFP). The note with it: 50 μM, 45 min. Type of assay: cell-based. The method, then: The mechanism of action of compounds 16b, 19a, and […] was further studied using Bacillus subtilis strain BS23, which contains a fusion of green fluorescence protein (GFP) to the α-subunit of the membrane-localized ATP synthase. In the assay, if the compounds damage the membrane, the green fluorescence will change from a uniform distribution to a clustered distribution. Epifluorescence microscopy was used to image the changes in the cells.
Bacillus subtilis BS23 (atpA-GFP) was grown in LB (10 g/L Tryptone, 5 g/L Yeast Extract, 5 g/L NaCl) supplemented with 0.5% (w/v) xylose at 37 °C, to an OD600 of 0.3 and then treated with 50 μM of the AMP mimics, 10 μg/mL of colistin or 0.25% (v/v) DMSO (vehicle control). The cells were grown for a further 45 min before being examined by epifluorescence microscopy. Micrographs were background subtracted, merged, and aligned in images.
Figure 3 Epifluorescence microscopy images showing membrane integrity of B. subtilis strain BS23 treated with colistin (10 µg/mL) and compounds 16b, 19a, and 19b (50 µM).

A further assay deals with MRC-5 human fibroblasts. In words: Toxicity assay, Alamar Blue. Type of assay: cell-based. To be noted: for IC50: MRC5, MRC-5 human fibroblasts, 72 h drug incubation, Alamar Blue. The method, then:
Normal human lung fibroblasts MRC-5 were cultured in minimal essential medium (MEM, Invitrogen) supplemented with 10% foetal calf serum (FCS), 1% L-glutamine–penicillin–streptomycin, 2% sodium bicarbonate, 1% non-essential amino acids (NEAA), and 1% sodium pyruvate. The cell line was maintained at 37 °C in 5% CO2 as an adherent monolayer and was passaged upon reaching confluence by standard cell culture techniques. MRC-5 cells were seeded at 2 × 10^4 cells per well in 96-well plates to ensure full confluence (quiescence). Cells were treated for 24 h after seeding with 0.1 to 1000 μM of compounds. After 72 h of drug incubation, the treated media was replaced with fresh media containing 10% Alamar Blue and the cells were incubated for another 6 h. The metabolic activity was detected by spectrophotometric analysis by assessing the absorbance of Alamar blue as previously described by Pasquier et al. Cell proliferation was determined and expressed as a percentage of untreated control cells. The determination of IC50 values was performed using GraphPad Prism 6 (San Diego, CA, USA). Each experiment was performed in triplicate and was repeated in three independent experiments.
A general note: Alamar Blue is a resazurin reagent that responds to reducing activity.

In general, MIC90 refers to an inhibitory concentration at the 90% level, which refers to growth in some studies and to a panel of isolates in others. In general, MIC refers to the smallest concentration in the dilution series that meets the test's criterion for growth inhibition. Usually IC50 stands for the concentration at which inhibition is half-maximal. The low end stands for higher potency, the high end for lower potency.

SMILES strings stand for the structures. ≈ marks a conversion by molar mass, not a printed value.

Regarding `COc1cc2ccccc2cc1C(=O)Nc1ccc(Br)cc1C(=O)N[C@@H](Cc1c[nH]c2ccccc12)C(=O)NCCCN` [Compound 13d, (S)-N-(2-((1-((3-aminopropyl)amino)-3-(1H-indol-3-yl)-1-oxopropan-2-yl)carbamoyl)-4-bromophenyl)-3-methoxy-2-naphthamide], the MIC90 against S. aureus (Staphylococcus aureus) turned out to be 3.9 µM (≈ 2.51 µg/mL); with E. coli (Escherichia coli), 62.5 µM (≈ 40.2 µg/mL). In addition, the “cytoplasmic membrane depolarization (DiSC3(5) release)” value (“cytoplasmic membrane depolarization” for short) with E. coli K12 and with S. aureus 38 was “relatively inactive” in each case. Moreover, the “disruption of established S. aureus biofilm” value was 75% in the assay with S. aureus biofilms (4× MIC (15.6 µM)) and 99% with S. aureus biofilms (8× MIC (31.2 µM)). Further, the “disruption of established E. coli biofilm (in words)” value (from here on “disruption … (in words)”) in the assay with E. coli biofilms is on record as “significant disruption”. The “disruption of E. coli biofilm mass” value with E. coli biofilms is reported as 59%.

As for `NCCCC[C@H](N)C(=O)NCCNC(=O)[C@H](Cc1c[nH]c2ccccc12)NC(=O)c1cc(Br)ccc1NC(=O)c1cccc(-c2ccccc2)c1` [Compound 19b, N-(4-bromo-2-(((S)-1-((2-((S)-2,6-diaminohexanamido)ethyl)amino)-3-(1H-indol-3-yl)-1-oxopropan-2-yl)carbamoyl)phenyl)-[1,1′-biphenyl]-3-carboxamide], the MIC in the assay on S. aureus (Staphylococcus aureus) and in the assay with E. coli (Escherichia coli) was 15.6 µM (≈ 11.7 µg/mL) each time. The MIC90 against S. aureus (Staphylococcus aureus), against S. aureus and against E. coli (Escherichia coli) was 15.6 µM (≈ 11.7 µg/mL) throughout. The “membrane damage (clustering of GFP fluorescence)” value (“membrane damage” below) in assay [1] is “caused membrane damage”. In addition, the “cytoplasmic membrane depolarization” value with S. aureus 38 was “reversed trend”. Further, the “therapeutic window: IC50 to human cells over MIC90” value in the assay with MRC-5 human fibroblasts (IC50 MRC-5 versus MIC90 for either S. aureus or E. coli) was “over 10 times”. In addition, the IC50 with MRC-5 human fibroblasts was 164 µM. Further, the “disruption of established S. aureus biofilm” value is reported as “over 60%” with S. aureus biofilms (2× MIC (31.2 µM)) and roughly 99% with S. aureus biofilms (8× MIC (125 µM)). In addition, the “disruption … (in words)” value in the assay on E. coli biofilms is listed as “significant disruption”. Besides, in the assay on E. coli biofilms, the “disruption of E. coli biofilm mass” value is “little effect”.

Turning to `NCCCC[C@H](N)C(=O)NCCNC(=O)[C@H](Cc1c[nH]c2ccccc12)NC(=O)c1cc(Br)ccc1NC(=O)c1ccc2ccccc2c1` [Compound 19a, N-(4-bromo-2-(((S)-1-((2-((S)-2,6-diaminohexanamido)ethyl)amino)-3-(1H-indol-3-yl)-1-oxopropan-2-yl)carbamoyl)phenyl)-2-naphthamide], the MIC with S. aureus (Staphylococcus aureus) and with E. coli (Escherichia coli) was 15.6 µM (≈ 11.3 µg/mL) in each case. Also, the MIC90 against S. aureus (Staphylococcus aureus) and with E. coli (Escherichia coli) was 15.6 µM (≈ 11.3 µg/mL) each time. Besides, the “membrane damage” value in assay [1] is “caused membrane damage”. Besides, the “cytoplasmic membrane depolarization” value in the assay on E. coli K12 is “greater membrane disruption in E. coli than in S. aureus”. In the assay with MRC-5 human fibroblasts, this compound registered a half-inhibitory concentration (IC50) of 83.9 µM. For the same compound, the entries for the “disruption of established S. aureus biofilm” value in the assay on S. aureus biofilms (2× MIC (31.2 µM)) and with S. aureus biofilms (8× MIC (125 µM)) were “over 60%” and roughly 99%, respectively. Moreover, in the assay on E. coli (versus parent 12a, 12j), the “improvement in antibacterial activity against E. coli compared to the parent compound” value is greater than 16 fold. For the same compound, the “disruption … (in words)” value in the assay on E. coli biofilms was “not effective”.

For the compound `NCCNC(=O)[C@H](Cc1c[nH]c2ccccc12)NC(=O)c1cc(-c2ccc3ccccc3c2)ccc1N` [Compound 16b, (S)-2-amino-N-(1-((2-aminoethyl)amino)-3-(1H-indol-3-yl)-1-oxopropan-2-yl)-5-(naphthalen-2-yl)benzamide], the values for the MIC90 in the assay on S. aureus (Staphylococcus aureus) and against E. coli (Escherichia coli) were 3.9 µM (≈ 1.92 µg/mL) and 31.2 µM (≈ 15.3 µg/mL), respectively. In addition, the “membrane damage” value in assay [1] is listed as “caused membrane damage”. Further, in the assay with MRC-5 human fibroblasts, half-maximal inhibition (IC50) was put at 24.6 µM. Also, the “disruption of established S. aureus biofilm” value in the assay with S. aureus biofilms (4× MIC (15.6 µM)) was 93%. In addition, the “disruption … (in words)” value with E. coli biofilms was “not effective”.

`NCCNC(=O)[C@H](Cc1c[nH]c2ccccc12)NC(=O)c1cc(Br)ccc1NC(=O)c1cccc(-c2ccccc2)c1` [Compound 12j, (S)-N-(2-((1-((2-aminoethyl)amino)-3-(1H-indol-3-yl)-1-oxopropan-2-yl)carbamoyl)-4-bromophenyl)-[1,1′-biphenyl]-3-carboxamide]: the MIC was 3.9 µM (≈ 2.44 µg/mL) with S. aureus (Staphylococcus aureus) and greater than 125 µM with E. coli (Escherichia coli). The results for the MIC90 against S. aureus (Staphylococcus aureus), with E. coli (Escherichia coli) and against E. coli were 3.9 µM (≈ 2.44 µg/mL), greater than 125 µM and greater than 125 µM, respectively. Besides, it took 13.5 µM to reach half-maximal inhibition in the assay with MRC-5 human fibroblasts (IC50).
